Test results published in BindingDB's records for doi:10.1016/j.bmcl.2003.09.069 (Sugen, 2003).

Test: Inhibitory activity against cellular Src protein tyrosine kinase using the actin ring assay

Structure (SMILES) | IC50
CNS(=O)(=O)c1ccc2c(c1)/C(=C/c1[nH]c3c(c1CCC(N)=O)CCCC3)C(=O)N2 [3-{2-[5-Methylsulfamoyl-2-oxo-1,2-dihydro-indol-(3Z)-ylidenemethyl]-4,5,6,7-tetrahydro-1H-indol-3-yl}-propionamide] | > 10000 nM
CNS(=O)(=O)c1ccc2c(c1)/C(=C/c1[nH]c3c(c1CCCN1CCOCC1)CCCC3)C(=O)N2 [3-[1-[3-(3-Morpholin-4-yl-propyl)-4,5,6,7-tetrahydro-1H-indol-2-yl]-meth-(Z)-ylidene]-2-oxo-2,3-dihydro-1H-indole-5-sulfonic acid methylamide] | 100 nM
CCS(=O)(=O)c1ccc2c(c1)/C(=C/c1[nH]c3c(c1CN1CCOCC1)CCCC3)C(=O)N2 [5-Ethanesulfonyl-3-[1-(3-morpholin-4-ylmethyl-4,5,6,7-tetrahydro-1H-indol-2-yl)-meth-(Z)-ylidene]-1,3-dihydro-indol-2-one] | 5000 nM
CCS(=O)(=O)c1ccc2c(c1)/C(=C/c1[nH]c3c(c1CCCN1CCN(CCO)CC1)CCCC3)C(=O)N2 [5-Ethanesulfonyl-3-[1-(3-{3-[4-(2-hydroxy-ethyl)-piperazin-1-yl]-propyl}-4,5,6,7-tetrahydro-1H-indol-2-yl)-meth-(Z)-ylidene]-1,3-dihydro-indol-2-one] | 1700 nM
CCS(=O)(=O)c1ccc2c(c1)/C(=C/c1[nH]c3c(c1CCC(N)=O)CCCC3)C(=O)N2 [3-{2-[5-Ethanesulfonyl-2-oxo-1,2-dihydro-indol-(3Z)-ylidenemethyl]-4,5,6,7-tetrahydro-1H-indol-3-yl}-propionamide] | > 10000 nM
CNS(=O)(=O)c1ccc2c(c1)/C(=C/c1[nH]c3c(c1CCCN1CCN(CCO)CC1)CCCC3)C(=O)N2 [3-[1-(3-{3-[4-(2-Hydroxy-ethyl)-piperazin-1-yl]-propyl}-4,5,6,7-tetrahydro-1H-indol-2-yl)-meth-(Z)-ylidene]-2-oxo-2,3-dihydro-1H-indole-5-sulfonic acid methylamide] | 3000 nM
CNS(=O)(=O)c1ccc2c(c1)/C(=C/c1[nH]c3c(c1CCCN1CCN(C)CC1)CCCC3)C(=O)N2 [3-[1-{3-[3-(4-Methyl-piperazin-1-yl)-propyl]-4,5,6,7-tetrahydro-1H-indol-2-yl}-meth-(Z)-ylidene]-2-oxo-2,3-dihydro-1H-indole-5-sulfonic acid methylamide] | 100 nM
CCS(=O)(=O)c1ccc2c(c1)/C(=C/c1[nH]c3c(c1CCCN1CCN(CC(=O)O)CC1)CCCC3)C(=O)N2 [[4-(3-{2-[5-Ethanesulfonyl-2-oxo-1,2-dihydro-indol-(3Z)-ylidenemethyl]-4,5,6,7-tetrahydro-1H-indol-3-yl}-propyl)-piperazin-1-yl]-acetic acid] | 10000 nM
CCS(=O)(=O)c1ccc2c(c1)/C(=C/c1[nH]c3c(c1CCCN1CCC(O)CC1)CCCC3)C(=O)N2 [5-Ethanesulfonyl-3-[1-{3-[3-(4-hydroxy-piperidin-1-yl)-propyl]-4,5,6,7-tetrahydro-1H-indol-2-yl}-meth-(Z)-ylidene]-1,3-dihydro-indol-2-one] | 800 nM
CNS(=O)(=O)c1ccc2c(c1)/C(=C/c1[nH]c3c(c1CN1CCOCC1)CCCC3)C(=O)N2 [3-[1-(3-Morpholin-4-ylmethyl-4,5,6,7-tetrahydro-1H-indol-2-yl)-meth-(Z)-ylidene]-2-oxo-2,3-dihydro-1H-indole-5-sulfonic acid methylamide] | 1000 nM
CCOC(=O)CN1CCN(CCCc2c(/C=C3\C(=O)Nc4ccc(S(=O)(=O)NC)cc43)[nH]c3c2CCCC3)CC1 [[4-(3-{2-[5-Methylsulfamoyl-2-oxo-1,2-dihydro-indol-(3Z)-ylidenemethyl]-4,5,6,7-tetrahydro-1H-indol-3-yl}-propyl)-piperazin-1-yl]-acetic acid ethyl ester] | 900 nM
CNS(=O)(=O)c1ccc2c(c1)/C(=C/c1[nH]c3c(c1CCCN1CCN(CC(=O)O)CC1)CCCC3)C(=O)N2 [[4-(3-{2-[5-Methylsulfamoyl-2-oxo-1,2-dihydro-indol-(3Z)-ylidenemethyl]-4,5,6,7-tetrahydro-1H-indol-3-yl}-propyl)-piperazin-1-yl]-acetic acid] | > 10000 nM
CCS(=O)(=O)c1ccc2c(c1)/C(=C/c1[nH]c3c(c1CCCN(C)C)CCCC3)C(=O)N2 [3-[1-[3-(3-Dimethylamino-propyl)-4,5,6,7-tetrahydro-1H-indol-2-yl]-meth-(Z)-ylidene]-5-ethanesulfonyl-1,3-dihydro-indol-2-one] | 500 nM
CNS(=O)(=O)c1ccc2c(c1)/C(=C/c1[nH]c3c(c1CCCN1CCC(O)CC1)CCCC3)C(=O)N2 [3-[1-{3-[3-(4-Hydroxy-piperidin-1-yl)-propyl]-4,5,6,7-tetrahydro-1H-indol-2-yl}-meth-(Z)-ylidene]-2-oxo-2,3-dihydro-1H-indole-5-sulfonic acid methylamide] | 900 nM
